Results published in patent US20230151025A1, “SUBSTITUTED THIAZOLOPYRIDINES, SALTS THEREOF AND THEIR USE AS HERBICIDALLY ACTIVE SUBSTANCES” (Bayer Aktiengesellschaft, priority 2020, published 2023).

Legend:
Assay type in all cases: in vivo
[1] = system: Digitaria sanguinalis (DIGSA); assay: Herbicidal pre-emergence action (C), 320 g/ha; details: ca. 3 weeks
Summary of the method: (§1)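 Weed and crop seeds sown in sandy loam; WP or EC formulations applied pre-emergence to the soil surface as aqueous suspension/emulsion with 0.5% additive at 600 l water/ha. Greenhouse-grown under optimum conditions; damage visually scored after ca. 3 weeks versus untreated controls (0% = as control, 100% = plants dead).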

Avena fatua = assay: Herbicidal pre-emergence action (C), 320 g/ha; details: ca. 3 weeks
Summary of the method: as §1

[2] = system: Matricaria inodora (MATIN); assay: Herbicidal pre-emergence action (C), 320 g/ha; details: ca. 3 weeks
Summary of the method: (§2)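 Sandy loam pots, seeds covered with soil → WP/EC compound sprayed on soil surface (aq., +0.5% additive, 600 l/ha) → greenhouse, optimum growth → visual herbicidal effect (%) at ca. 3 wk vs untreated.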

[3] = system: Digitaria sanguinalis (DIGSA); assay: Herbicidal pre-emergence action (A), 1280 g/ha; details: visual grading after ca. 3 weeks vs untreated controls, 100% = plants have died off, 0% = as control plants
Summary of the method: (§3)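 Seeds were sown in sandy loam pots (one mono- and one dicot weed per pot) and covered with soil; WP or EC formulations were applied to the soil surface as aqueous suspension/emulsion with 0.5% additive at 600 l water/ha. Damage was scored visually after ca. 3 weeks versus untreated controls (0% = control, 100% = dead).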

[4] = system: Echinochloa crus-galli (ECHCG); assay: Herbicidal pre-emergence action (A), 1280 g/ha; details: visual grading after ca. 3 weeks vs untreated controls, 100% = plants have died off, 0% = as control plants
Summary of the method: as §3

[5] = system: Alopecurus myosuroides (ALOMY); assay: Herbicidal pre-emergence action (A), 1280 g/ha; details: visual grading after ca. 3 weeks vs untreated controls, 100% = plants have died off, 0% = as control plants
Summary of the method: as §3

Stellaria media (STEME) = assay: Herbicidal pre-emergence action (A), 1280 g/ha; details: visual grading after ca. 3 weeks vs untreated controls
Summary of the method: as §3

[6] = system: Abutilon theophrasti (ABUTH); assay: Herbicidal pre-emergence action (A), 1280 g/ha; details: visual grading after ca. 3 weeks vs untreated controls, 100% = plants have died off, 0% = as control plants
Summary of the method: as §3

Lolium rigidum (LOLRI) = assay: Herbicidal pre-emergence action (A), 1280 g/ha; details: visual grading after ca. 3 weeks vs untreated controls, 100% = plants have died off, 0% = as control plants
Summary of the method: as §3

Veronica persica (VERPE) = assay: Herbicidal pre-emergence action (A), 1280 g/ha; details: visual grading after ca. 3 weeks vs untreated controls
Summary of the method: as §3

Poa annua (POAAN) = assay: Herbicidal pre-emergence action (A), 1280 g/ha; details: visual grading after ca. 3 weeks vs untreated controls, 100% = plants have died off, 0% = as control plants
Summary of the method: as §3

[7] = system: Kochia scoparia (KCHSC; Bassia scoparia); assay: Herbicidal pre-emergence action (A), 1280 g/ha; details: visual grading after ca. 3 weeks vs untreated controls
Summary of the method: as §3

Setaria viridis (SETVI) [8] = assay: Herbicidal pre-emergence action (A), 1280 g/ha; details: visual grading after ca. 3 weeks vs untreated controls
Summary of the method: as §3

[9] = system: Amaranthus retroflexus (AMARE); assay: Herbicidal pre-emergence action (A), 1280 g/ha; details: visual grading after ca. 3 weeks vs untreated controls
Summary of the method: as §3

[10] = system: Matricaria inodora (MATIN); assay: Herbicidal pre-emergence action (A), 1280 g/ha; details: visual grading after ca. 3 weeks vs untreated controls
Summary of the method: as §3

[11] = system: Matricaria inodora (MATIN); assay: Herbicidal post-emergence action (B), 1280 g/ha; details: rated visually after about 3 weeks vs untreated controls
Summary of the method: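 Post-emergence spray, one-leaf stage; WP/EC formulation, aqueous, 0.5% additive, 600 L/ha water. Sandy loam, greenhouse, doubly sown pots. Visual % rating vs untreated control at ~3 weeks (100% = dead).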

[12] = system: Abutilon theophrasti (ABUTH); assay: Herbicidal pre-emergence action (C), 320 g/ha; details: ca. 3 weeks
Summary of the method: as §2

Setaria viridis (SETVI) [13] = assay: Herbicidal post-emergence action (D), 320 g/ha; details: ca. 3 weeks
Summary of the method: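 Visual % herbicidal effect vs untreated controls (100% = dead, 0% = like control), rated ca. 3 weeks after post-emergence spray. Plants treated at single-leaf stage, 2 to 3 weeks after sowing in sandy loam; aqueous WP/EC spray, 0.5% additive, 600 l water/ha.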

[14] = system: Polygonum convolvulus (POLCO); assay: Herbicidal pre-emergence action (C), 320 g/ha; details: ca. 3 weeks
Summary of the method: as §2

| Structure (SMILES) | herbicidal effect DIGSA [1] | herbicidal effect AVEFA (Avena fatua) | herbicidal effect MATIN [2] | DIGSA, herbicidal effect in percent (%) [3] | ECHCG, herbicidal effect in percent (%) [4] | ALOMY, herbicidal effect in percent (%) [5] | herbicidal effect STEME (Stellaria media (STEME)) | ABUTH, herbicidal effect in percent (%) [6] | LOLRI, herbicidal effect in percent (%) (Lolium rigidum (LOLRI)) | herbicidal effect VERPE (Veronica persica (VERPE)) | POAAN, herbicidal effect in percent (%) (Poa annua (POAAN)) | herbicidal effect KCHSC [7] | herbicidal effect SETVI (Setaria viridis (SETVI) [8]) | herbicidal effect AMARE [9] | herbicidal effect MATIN [10] | herbicidal activity MATIN [11] | herbicidal effect ABUTH [12] | herbicidal effect SETVI (Setaria viridis (SETVI) [13]) | herbicidal effect POLCO [14] |
| --- | --- | --- | --- | --- | --- | --- | --- | --- | --- | --- | --- | --- | --- | --- | --- | --- | --- | --- | --- |
| CCc1cc2scnc2nc1-c1ccccc1C [Example I-093] | 100% | 80% | 90% | 100% | 90% | 100% | 100% | 90% | 100% | 100% | 100% | 100% | 100% | 90% | 100% | 100% |  |  |  |
| Cc1cc2scnc2nc1-c1sccc1C [Example I-143] |  | 90% | 90% |  | 100% | 100% | 90% | 90% | 100% | 100% | 100% | 90% | 100% | 90% | 90% | 100% | 80% | 80% |  |
| Cc1cc2scnc2nc1-c1ccccc1 [Example I-041] | 100% | 90% | 90% | 100% | 100% | 100% | 100% | 90% | 100% | 100% | 100% | 100% | 100% | 100% | 100% | 100% |  | 90% | 90% |
| Cc1cc2scnc2nc1-c1ccc(F)cc1F [Example I-122] | 100% | 100% |  | 100% | 100% | 100% | 100% | 100% | 100% | 100% | 100% | 100% | 100% | 100% | 100% |  |  |  |  |
| CCc1cc2scnc2nc1-c1cccc(F)c1 [Example I-029] | 100% |  |  | 100% | 100% | 100% | 100% | 90% | 100% | 90% | 100% | 100% | 100% | 100% | 90% |  |  |  |  |
| CCc1cc2scnc2nc1-c1ccc(F)cc1F [Example I-030] | 100% |  |  | 90% | 100% | 100% | 90% |  | 100% | 100% | 100% | 100% | 100% | 90% | 100% |  |  |  | 80% |
